Data on 16 compounds can be found in ChEMBL document CHEMBL5291721, “A preclinical secondary pharmacology resource illuminates target-adverse drug reaction associations of marketed drugs” (Nat Commun, 2023).

One experiment addresses Bile salt export pump (Homo sapiens, UniProt O95342). It counts as functional.
Experiment [1] concerns the target T1, Alpha-2A adrenergic receptor (Homo sapiens, UniProt P08913).
T1 sequence (P08913 whole entry): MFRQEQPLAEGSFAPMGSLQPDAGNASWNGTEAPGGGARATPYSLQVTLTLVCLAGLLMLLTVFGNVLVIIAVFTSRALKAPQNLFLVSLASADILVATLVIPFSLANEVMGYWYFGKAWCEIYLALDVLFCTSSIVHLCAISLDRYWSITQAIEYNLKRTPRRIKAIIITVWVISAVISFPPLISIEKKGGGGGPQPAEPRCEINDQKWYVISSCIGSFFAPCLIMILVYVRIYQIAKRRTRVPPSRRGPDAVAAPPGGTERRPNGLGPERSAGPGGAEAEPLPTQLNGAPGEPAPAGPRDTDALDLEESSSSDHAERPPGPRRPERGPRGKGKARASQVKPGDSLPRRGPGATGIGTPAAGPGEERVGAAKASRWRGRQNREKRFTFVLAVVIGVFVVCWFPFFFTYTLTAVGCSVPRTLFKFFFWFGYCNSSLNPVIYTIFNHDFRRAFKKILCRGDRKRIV

Experiment [2] deals with T2, Muscarinic acetylcholine receptor M1 (Homo sapiens, UniProt P11229).
T2 sequence (P11229 whole entry): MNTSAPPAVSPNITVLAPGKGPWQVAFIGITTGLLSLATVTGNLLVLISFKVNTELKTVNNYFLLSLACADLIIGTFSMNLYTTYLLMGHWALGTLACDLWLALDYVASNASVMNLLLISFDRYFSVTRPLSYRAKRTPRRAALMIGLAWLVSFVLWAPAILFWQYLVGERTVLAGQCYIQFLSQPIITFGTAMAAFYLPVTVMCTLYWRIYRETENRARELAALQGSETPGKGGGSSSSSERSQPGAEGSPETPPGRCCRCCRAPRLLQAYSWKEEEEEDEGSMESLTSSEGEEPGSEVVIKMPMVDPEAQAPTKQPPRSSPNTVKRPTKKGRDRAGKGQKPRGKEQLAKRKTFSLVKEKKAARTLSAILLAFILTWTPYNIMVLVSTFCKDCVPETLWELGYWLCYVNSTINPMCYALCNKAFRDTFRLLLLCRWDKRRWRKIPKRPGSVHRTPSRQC
It counts as functional, cell-based.

In experiment [3] the target is T3, D(1A) dopamine receptor (Homo sapiens, UniProt P21728).
T3 sequence (P21728 whole entry): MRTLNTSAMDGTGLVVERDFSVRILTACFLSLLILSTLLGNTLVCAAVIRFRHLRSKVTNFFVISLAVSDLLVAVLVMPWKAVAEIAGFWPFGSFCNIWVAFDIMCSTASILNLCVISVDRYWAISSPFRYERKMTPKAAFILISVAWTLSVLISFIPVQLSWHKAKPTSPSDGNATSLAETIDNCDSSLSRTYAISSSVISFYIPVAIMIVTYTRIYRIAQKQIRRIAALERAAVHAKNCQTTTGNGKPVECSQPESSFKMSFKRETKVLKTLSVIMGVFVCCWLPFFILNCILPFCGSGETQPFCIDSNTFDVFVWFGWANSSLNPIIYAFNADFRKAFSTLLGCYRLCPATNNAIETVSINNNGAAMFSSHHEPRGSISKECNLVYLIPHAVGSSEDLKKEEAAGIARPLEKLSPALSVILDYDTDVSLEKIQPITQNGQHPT
Experiment [4] has as its target T4, Alpha-2C adrenergic receptor (Homo sapiens, UniProt P18825).
T4 sequence (P18825 whole entry): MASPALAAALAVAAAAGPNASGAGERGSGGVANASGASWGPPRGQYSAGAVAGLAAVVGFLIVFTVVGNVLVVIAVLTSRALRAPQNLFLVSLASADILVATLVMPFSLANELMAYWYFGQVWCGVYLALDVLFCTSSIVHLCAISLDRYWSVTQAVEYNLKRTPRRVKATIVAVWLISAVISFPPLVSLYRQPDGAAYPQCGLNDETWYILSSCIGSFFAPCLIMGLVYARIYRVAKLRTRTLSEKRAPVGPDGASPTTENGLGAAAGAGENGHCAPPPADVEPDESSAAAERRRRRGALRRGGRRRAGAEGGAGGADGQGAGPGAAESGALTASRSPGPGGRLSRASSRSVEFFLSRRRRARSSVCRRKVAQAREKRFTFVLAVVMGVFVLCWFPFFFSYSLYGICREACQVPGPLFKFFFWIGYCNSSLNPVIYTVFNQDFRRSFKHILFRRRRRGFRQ
It counts as functional.

Experiment [5] has as its target T3, D(1A) dopamine receptor. It counts as functional, cell-based.
Another experiment concerns the target T5, Endothelin-1 receptor (Homo sapiens, UniProt P25101).
T5 sequence (P25101 whole entry): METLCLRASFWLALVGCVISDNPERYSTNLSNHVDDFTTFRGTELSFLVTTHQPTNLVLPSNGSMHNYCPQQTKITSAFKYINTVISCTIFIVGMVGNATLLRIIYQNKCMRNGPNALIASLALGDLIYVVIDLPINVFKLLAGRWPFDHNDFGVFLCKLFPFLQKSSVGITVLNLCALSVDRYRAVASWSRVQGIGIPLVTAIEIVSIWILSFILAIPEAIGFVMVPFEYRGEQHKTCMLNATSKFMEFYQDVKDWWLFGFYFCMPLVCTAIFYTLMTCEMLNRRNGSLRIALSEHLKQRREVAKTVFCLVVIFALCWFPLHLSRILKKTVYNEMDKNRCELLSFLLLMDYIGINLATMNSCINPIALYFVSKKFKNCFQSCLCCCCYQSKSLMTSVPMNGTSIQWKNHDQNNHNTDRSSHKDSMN

The next experiment addresses T6, Progesterone receptor (Homo sapiens, UniProt P06401).
T6 sequence (P06401 whole entry): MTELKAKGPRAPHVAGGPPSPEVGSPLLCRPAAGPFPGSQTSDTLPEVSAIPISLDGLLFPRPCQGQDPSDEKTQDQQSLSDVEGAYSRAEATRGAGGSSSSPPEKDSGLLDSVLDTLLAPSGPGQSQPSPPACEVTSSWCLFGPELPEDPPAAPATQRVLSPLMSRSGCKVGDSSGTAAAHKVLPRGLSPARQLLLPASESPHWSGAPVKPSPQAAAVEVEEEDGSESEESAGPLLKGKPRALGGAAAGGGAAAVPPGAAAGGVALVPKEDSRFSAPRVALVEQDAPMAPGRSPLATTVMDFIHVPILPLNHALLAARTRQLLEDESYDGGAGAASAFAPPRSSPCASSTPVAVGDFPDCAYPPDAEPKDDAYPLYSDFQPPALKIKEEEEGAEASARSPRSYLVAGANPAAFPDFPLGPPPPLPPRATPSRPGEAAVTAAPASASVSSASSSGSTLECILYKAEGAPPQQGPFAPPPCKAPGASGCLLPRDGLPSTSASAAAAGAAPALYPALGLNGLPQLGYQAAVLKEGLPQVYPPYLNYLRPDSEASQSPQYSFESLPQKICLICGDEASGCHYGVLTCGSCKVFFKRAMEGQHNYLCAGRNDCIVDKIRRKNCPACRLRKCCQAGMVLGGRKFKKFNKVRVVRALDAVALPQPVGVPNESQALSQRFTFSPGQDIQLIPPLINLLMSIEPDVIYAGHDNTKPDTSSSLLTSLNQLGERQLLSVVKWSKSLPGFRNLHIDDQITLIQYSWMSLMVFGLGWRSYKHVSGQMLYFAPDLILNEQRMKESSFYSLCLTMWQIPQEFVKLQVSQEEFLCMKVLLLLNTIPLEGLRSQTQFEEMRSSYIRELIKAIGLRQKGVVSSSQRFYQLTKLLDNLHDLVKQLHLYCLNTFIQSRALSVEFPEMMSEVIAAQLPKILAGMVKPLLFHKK
It counts as functional.

In experiment [6] the target is Sodium-dependent dopamine transporter (Homo sapiens, UniProt Q01959).
Chain of Sodium-dependent dopamine transporter (Q01959 whole entry): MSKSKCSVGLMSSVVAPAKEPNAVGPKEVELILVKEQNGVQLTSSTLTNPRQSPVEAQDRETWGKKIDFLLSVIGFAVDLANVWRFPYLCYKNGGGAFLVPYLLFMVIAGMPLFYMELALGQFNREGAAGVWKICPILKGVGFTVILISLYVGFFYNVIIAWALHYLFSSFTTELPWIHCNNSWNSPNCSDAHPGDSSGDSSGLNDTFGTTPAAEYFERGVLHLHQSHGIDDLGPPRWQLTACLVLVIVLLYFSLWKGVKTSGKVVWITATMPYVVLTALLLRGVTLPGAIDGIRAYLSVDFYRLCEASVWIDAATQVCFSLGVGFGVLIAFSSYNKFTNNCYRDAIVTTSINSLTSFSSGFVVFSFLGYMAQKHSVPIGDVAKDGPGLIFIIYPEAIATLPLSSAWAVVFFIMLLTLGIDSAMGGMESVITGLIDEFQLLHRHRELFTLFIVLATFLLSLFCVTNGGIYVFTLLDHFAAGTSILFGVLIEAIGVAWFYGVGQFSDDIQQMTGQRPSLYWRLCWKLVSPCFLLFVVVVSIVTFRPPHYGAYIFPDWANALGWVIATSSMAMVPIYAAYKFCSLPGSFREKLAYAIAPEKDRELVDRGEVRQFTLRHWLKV

A value given as a limit tells only on which side of the number the result lay.
Also: assay procedure not described here.

Chain of Bile salt export pump (O95342 whole entry): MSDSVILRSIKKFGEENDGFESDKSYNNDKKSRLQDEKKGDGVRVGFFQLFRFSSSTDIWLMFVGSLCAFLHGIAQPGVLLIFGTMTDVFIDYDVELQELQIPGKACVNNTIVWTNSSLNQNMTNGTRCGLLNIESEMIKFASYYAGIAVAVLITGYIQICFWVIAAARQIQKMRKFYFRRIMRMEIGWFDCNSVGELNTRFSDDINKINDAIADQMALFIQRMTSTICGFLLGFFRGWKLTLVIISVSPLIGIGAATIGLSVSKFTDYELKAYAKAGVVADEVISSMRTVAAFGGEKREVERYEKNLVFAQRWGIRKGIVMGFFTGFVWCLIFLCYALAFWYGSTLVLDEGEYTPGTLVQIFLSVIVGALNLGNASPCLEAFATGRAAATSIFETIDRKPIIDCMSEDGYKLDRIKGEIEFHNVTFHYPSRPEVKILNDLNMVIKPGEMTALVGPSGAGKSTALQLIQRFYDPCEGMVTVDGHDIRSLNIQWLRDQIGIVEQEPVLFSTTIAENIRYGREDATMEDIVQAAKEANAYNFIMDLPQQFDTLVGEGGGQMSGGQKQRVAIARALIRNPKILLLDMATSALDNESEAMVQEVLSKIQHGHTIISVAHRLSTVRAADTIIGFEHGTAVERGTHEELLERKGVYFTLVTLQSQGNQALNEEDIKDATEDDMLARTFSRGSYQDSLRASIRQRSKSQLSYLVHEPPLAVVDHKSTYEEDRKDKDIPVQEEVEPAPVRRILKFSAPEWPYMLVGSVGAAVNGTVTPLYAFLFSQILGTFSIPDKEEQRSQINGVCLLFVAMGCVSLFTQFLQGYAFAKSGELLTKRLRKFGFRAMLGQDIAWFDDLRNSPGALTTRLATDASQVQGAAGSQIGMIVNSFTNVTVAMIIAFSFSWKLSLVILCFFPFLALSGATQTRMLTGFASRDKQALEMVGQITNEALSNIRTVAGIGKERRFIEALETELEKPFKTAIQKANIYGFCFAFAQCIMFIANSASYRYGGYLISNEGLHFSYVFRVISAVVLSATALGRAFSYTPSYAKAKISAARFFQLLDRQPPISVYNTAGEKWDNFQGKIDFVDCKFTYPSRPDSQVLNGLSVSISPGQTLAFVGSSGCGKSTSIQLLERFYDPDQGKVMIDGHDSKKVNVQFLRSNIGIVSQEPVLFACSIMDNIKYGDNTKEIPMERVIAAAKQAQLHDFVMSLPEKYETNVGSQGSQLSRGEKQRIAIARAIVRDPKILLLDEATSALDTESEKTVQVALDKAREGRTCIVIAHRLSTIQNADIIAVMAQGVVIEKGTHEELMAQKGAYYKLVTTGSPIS

For `C=CCOc1ccc(CC(=O)O)cc1Cl` [ALCLOFENAC], the half-maximal activity concentration (AC50) (commonly the concentration giving half of the maximal activity seen) is more than 300 µM at Bile salt export pump, more than 30 µM in [1], more than 30 µM in experiment [2] and more than 30 µM on D(1A) dopamine receptor [3].
In the case of `CN1CCN(C(c2ccccc2)c2ccc(Cl)cc2)CC1` (configuration not stated) [CHLORCYCLIZINE], the half-maximal activity concentration (AC50) is more than 300 µM at Bile salt export pump, 3.1 µM in experiment [1], 0.691 µM in experiment [2] and 6.89 µM at D(1A) dopamine receptor [3].
On to `Cc1c(C)c2c(c(C)c1O)CCC(C)(COc1ccc(CC3SC(=O)NC3=O)cc1)O2` (configuration not stated) [TROGLITAZONE], for which the AC50 is 5.01 µM on Bile salt export pump; 10.3 µM in experiment [1]; 24 µM in experiment [4]; more than 30 µM on D(1A) dopamine receptor [5]; 8.59 µM on D(1A) dopamine receptor [3]; more than 30 µM at Endothelin-1 receptor. The AC50 was 16 µM on Progesterone receptor and 23.7 µM in experiment [6].
On to `OC[C@H]1NC[C@H](O)[C@@H](O)[C@H]1O`, for which the AC50 was more than 300 µM on Bile salt export pump, more than 30 µM in [1], more than 30 µM in experiment [2] and more than 30 µM on D(1A) dopamine receptor [3].
Take `CN(C)CCC=C1c2ccccc2CCc2ccccc21` [AMITRIPTYLINE]: the AC50 at Bile salt export pump was 180 µM; in [1] it was 1.27 µM; in experiment [4] it was 0.29 µM; on D(1A) dopamine receptor [5], more than 10 µM; at Endothelin-1 receptor, more than 30 µM; at Progesterone receptor it was more than 30 µM. Besides, in [6], the AC50 was determined as 13.8 µM.
As to `C[C@H](Nc1ncnc2[nH]cnc12)c1cc2cccc(Cl)c2c(=O)n1-c1ccccc1` [DUVELISIB], the half-maximal activity concentration (AC50) at Bile salt export pump is 45 µM; in [1], more than 30 µM; in experiment [4] it was more than 30 µM; at D(1A) dopamine receptor [5] it was more than 30 µM; on D(1A) dopamine receptor [3], more than 30 µM; on Endothelin-1 receptor it was more than 30 µM. Also, the concentration at half-maximal activity (AC50) (on Progesterone receptor; in [6]) was more than 30 µM each time.
For the compound `N#Cc1ccnc(N2C(=O)CC[C@H]2C(=O)N(c2cncc(F)c2)[C@H](C(=O)NC2CC(F)(F)C2)c2ccccc2Cl)c1` [IVOSIDENIB], the half-maximal activity concentration (AC50) on Bile salt export pump is 79 µM; in experiment [1] it was more than 30 µM; in experiment [2], more than 30 µM; at D(1A) dopamine receptor [3] it was more than 30 µM.
Regarding `CCCCCCO[C@@H](C)c1cccc(-c2csc(NC(=O)c3cc(Cl)c(/C=C(\C)C(=O)O)c(Cl)c3)n2)c1OC` [LUSUTROMBOPAG], the AC50 at Bile salt export pump was 4 µM; in experiment [1], more than 30 µM; in [2] it was 16.2 µM; at D(1A) dopamine receptor [3] it was 1.54 µM.
Take `CC1=C(C/C=C(\C)CCC[C@H](C)CCC[C@H](C)CCCC(C)C)C(=O)c2ccccc2C1=O` [PHYTONADIONE]: the AC50 at Bile salt export pump was 160 µM; in experiment [1], more than 30 µM; in experiment [2], more than 30 µM; at D(1A) dopamine receptor [3] it was more than 30 µM.
As to `CCCCCCCC/C=C\CCCCCCCC(=O)O` [OLEIC ACID], the half-maximal activity concentration (AC50) was 260 µM on Bile salt export pump, more than 30 µM in [1], 13.2 µM in [2] and more than 30 µM at D(1A) dopamine receptor [3].
With `CS(=O)(=O)Nc1ccc([N+](=O)[O-])cc1Oc1ccccc1` [NIMESULIDE], the AC50 on Bile salt export pump was 110 µM; in [1], more than 30 µM; in experiment [4], more than 30 µM; on D(1A) dopamine receptor [5], more than 30 µM; at D(1A) dopamine receptor [3] it was more than 30 µM; on Endothelin-1 receptor, more than 30 µM. The AC50 on Progesterone receptor is more than 30 µM; in [6], 9 µM.
With `O=C(O)[C@H]1/C(=C/CO)O[C@@H]2CC(=O)N21` [CLAVULANIC ACID], the AC50 at Bile salt export pump was more than 300 µM; in experiment [4], more than 30 µM; on D(1A) dopamine receptor [5], more than 30 µM; on Endothelin-1 receptor it was more than 30 µM; at Progesterone receptor it was more than 30 µM; in experiment [6] it was more than 30 µM.
As to `NCC1(CC(=O)O)CCCCC1` [GABAPENTIN], the AC50 at Bile salt export pump is more than 300 µM; in experiment [1] it was more than 30 µM; in [4] it was more than 30 µM; at D(1A) dopamine receptor [5] it was more than 30 µM; on D(1A) dopamine receptor [3], more than 30 µM; at Endothelin-1 receptor, more than 30 µM. The AC50 (at Progesterone receptor; in experiment [6]) was more than 30 µM in each case.
On to `CCC[C@@]1(CCc2ccccc2)CC(O)=C([C@H](CC)c2cccc(NS(=O)(=O)c3ccc(C(F)(F)F)cn3)c2)C(=O)O1`, for which the AC50 on Bile salt export pump was 3.2 µM; in experiment [4] it was 25 µM; at D(1A) dopamine receptor [5] it was more than 30 µM; at Endothelin-1 receptor it was more than 30 µM; on Progesterone receptor it was 13 µM; in [6] it was 27 µM.
In the case of `Cc1cc(C)cc(OCC2CNC(=O)O2)c1` (configuration not stated) [METAXALONE], the AC50 at Bile salt export pump is more than 300 µM; in [1], more than 30 µM; in experiment [2] it was more than 30 µM; at D(1A) dopamine receptor [3] it was more than 30 µM.
As for `Cc1ccc(C(C)C)c(O)c1` [THYMOL], the AC50 at Bile salt export pump is more than 300 µM; in experiment [1], more than 30 µM; in experiment [2] it was 13.9 µM; at D(1A) dopamine receptor [3] it was more than 30 µM.
